The results in this text go back to patent US20140336136A1, “Carboxylated Stilbenes For Activating AMPK And Sirtuins” (Rahn AG, priority 2013, published 2014).

SMILES strings stand for the structures. Marks after values point to notes of the source that are not given here. A value given as a limit tells only on which side of the number the result lay.

Data set [1] concerns the target T1, Sirt3 (Homo sapiens, UniProt Q9NTG7).
T1 construct: purchased BioMol, Hamburg, Germany
T1 sequence (Q9NTG7 1-399): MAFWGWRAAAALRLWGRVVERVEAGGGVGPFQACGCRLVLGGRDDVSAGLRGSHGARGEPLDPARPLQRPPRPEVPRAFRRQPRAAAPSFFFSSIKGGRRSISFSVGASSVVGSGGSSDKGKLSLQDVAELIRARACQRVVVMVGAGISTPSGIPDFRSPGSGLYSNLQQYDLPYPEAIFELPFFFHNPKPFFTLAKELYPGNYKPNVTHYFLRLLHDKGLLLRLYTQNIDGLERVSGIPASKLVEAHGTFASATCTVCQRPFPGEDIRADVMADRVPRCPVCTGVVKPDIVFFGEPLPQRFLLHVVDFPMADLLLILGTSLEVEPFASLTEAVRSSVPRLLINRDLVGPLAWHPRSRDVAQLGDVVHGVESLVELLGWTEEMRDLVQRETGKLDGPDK
The experiment in a line: SIRT3 Fluorimetric Drug Discovery Kit, Sirt3 activation. In kind it is biochemical. To be noted: Example 2, Table 6.

For data set [2], the system named is 5′-AMP-activated protein kinase (AMPK). The data set can be described thus: Western blot analysis of AMPK phosphorylation in NHEK. To be noted: for AMPK phosphorylation [% Control] / Ratio P-AMPK/GAPDH / P-AMPK: 1000 μM; for P-AMPK: 48 h. In kind it is cell-based, human.
For data set [3], the target named is T2, Sirt2 (Homo sapiens, UniProt Q8IXJ6).
T2 construct: purchased BioMol, Hamburg, Germany
T2 sequence (Q8IXJ6 1-389): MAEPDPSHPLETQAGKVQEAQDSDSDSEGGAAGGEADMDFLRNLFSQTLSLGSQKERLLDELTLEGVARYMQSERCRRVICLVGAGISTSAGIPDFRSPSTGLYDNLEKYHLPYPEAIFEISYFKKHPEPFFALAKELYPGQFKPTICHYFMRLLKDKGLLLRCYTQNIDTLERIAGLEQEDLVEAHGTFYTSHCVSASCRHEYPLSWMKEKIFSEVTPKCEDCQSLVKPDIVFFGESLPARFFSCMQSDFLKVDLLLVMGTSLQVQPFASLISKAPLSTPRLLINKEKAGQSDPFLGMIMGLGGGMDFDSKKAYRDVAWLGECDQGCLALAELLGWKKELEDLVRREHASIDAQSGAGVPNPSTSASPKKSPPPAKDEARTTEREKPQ
The experiment in a line: SIRT2 Fluorimetric Drug Discovery Kit, Sirt2 activation. It counts as biochemical. To be noted: Example 2, Table 6.

Data set [4] deals with normal human dermal fibroblasts (NHDF). The data set can be described thus: Resazurin based cytotoxicity assay in NHDF. It counts as cell-based. To be noted: 24 h and 48 h; 0.03 μM to 200 μM. The procedure: The effect of compound (I-1) on mitochondria biosynthesis was investigated in normal human dermal fibroblasts (NHDF). NHDF were obtained from PromoCell (Lot No. 006151; donor; from eyelid skin) and cultivated in Fibroblast Growth Medium (PromoCell; Cat. No. C-023020) supplemented with Supplement Mix (PromoCell; Cat. No. C-039215) at 37° C./5% CO2. NHDF were seeded in flat-bottom 96-well plates (5000 cells/well) and incubated in said medium for 24 h or 48 h, respectively, with the compounds present in concentrations ranging from 0.03 μM to 200 μM. Mitochondria content was analyzed using the Mito-ID® Green Detection Kit for fluorescence microscopy (Enzo Life Sciences; Cat. No. ENZ-51055-K500). Fluorometric analysis was done using a Spectramax plate reader (Molecular Devices) and following the manufacturer's protocol. Cytotoxicity was determined in parallel by fluorometric readout using the Resazurin Based In Vitro Toxicology Assay Kit (Sigma Aldrich, Cat. No. TOX-8), and following the manufacturer's protocol.

For data set [5], the system named is normal human epidermal keratinocytes (NHEK). The experiment in a line: MTT reduction cytotoxicity assay in NHEK. It counts as cell-based. To be noted: for viability: NHEK. The method, then: Culture conditions: 37° C., 5% CO2. Culture medium: Keratinocyte-SFM (serum-free medium) containing human recombinant epidermal growth factor (EGF 1-53) 0.25 ng/mL and bovine pituitary extract 25 μg/mL (Gibco; Cat. No. 17005-075), supplemented with gentamycin 25 μg/mL. Assay medium: Keratinocyte-SFM (Gibco; Cat. No. 10744-019), supplemented with gentamycin 25 μg/mL.
NHEK were seeded in 24-well plates (30.000 cells/well) and cultured in culture medium for 24 h and then in assay medium for another 24 h. Medium was then removed and replaced by assay medium containing the respective test compound or reference in defined concentrations.
Cytotoxicity was determined using the 3-(4,5-dimethylthiazol-2-yl)-2,5-diphenyltetrazoliumbromid (MTT) reduction assay (sse T. Mosmann (1983) J. Immunol. Methods. 65, pp. 55-63).

The target of data set [6] is T3, human sirtuin-1 (Sirt1) (Homo sapiens, UniProt Q96EB6).
T3 construct: purchased BioMol, Hamburg, Germany
T3 sequence (Q96EB6 1-747): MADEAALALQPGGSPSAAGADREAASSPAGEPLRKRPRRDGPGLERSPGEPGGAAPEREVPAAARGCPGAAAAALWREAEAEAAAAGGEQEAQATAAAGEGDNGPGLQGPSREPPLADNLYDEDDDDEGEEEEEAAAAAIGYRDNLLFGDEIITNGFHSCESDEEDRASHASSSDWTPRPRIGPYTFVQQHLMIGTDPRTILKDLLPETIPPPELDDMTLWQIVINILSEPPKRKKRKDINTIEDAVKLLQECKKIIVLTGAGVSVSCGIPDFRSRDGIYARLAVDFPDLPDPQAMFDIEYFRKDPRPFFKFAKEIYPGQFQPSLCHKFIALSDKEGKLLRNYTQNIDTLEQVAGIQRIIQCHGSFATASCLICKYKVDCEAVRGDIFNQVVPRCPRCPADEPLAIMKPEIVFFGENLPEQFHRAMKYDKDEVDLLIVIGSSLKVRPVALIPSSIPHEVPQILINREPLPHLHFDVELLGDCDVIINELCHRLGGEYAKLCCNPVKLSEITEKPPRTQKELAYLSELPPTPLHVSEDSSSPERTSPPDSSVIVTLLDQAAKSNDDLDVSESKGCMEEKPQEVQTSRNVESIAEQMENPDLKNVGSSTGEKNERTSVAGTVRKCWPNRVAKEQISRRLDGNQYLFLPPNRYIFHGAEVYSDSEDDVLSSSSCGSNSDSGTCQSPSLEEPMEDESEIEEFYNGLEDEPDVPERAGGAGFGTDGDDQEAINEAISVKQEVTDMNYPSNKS
The data set can be described thus: SIRT1 Fluorimetric Drug Discovery Kit, Sirt1 activation. To be noted: for Fold increase in sirtl activity versus control: 10 μM, control = trans-resveratrol. It counts as biochemical. The method, then: Compounds were tested for Sirt1 activation using the SIRT1 Fluorimetric Drug Discovery Kit (BioMol, Hamburg, Germany), Testing was carried out in dubplicate following the manufacturer's instructions. Assay medium: 50 mM Tris-HCl pH 8.0, 137 mM NaCl, 2.7 mM KCl, 1 mM MgCl2, 1 mg/ml bovine serum albumin (BSA). Stock solutions of the test compounds (10 mM in DMSO) were used, yielding a final concentration of 10 μM in the assay plate. Readout was obtained by measuring the fluorescence in a microtiter plate reader (excitation: 380 nm; detection: 440 nm).
For this purpose, the test item stock solutions were diluted to yield concentrations of 0.3, 1, 3, 10 and 30 μM, respectively, in the assay, which was performed as described above. The compound of structure (I-1) was selected for this experiment.
Quantification using the GraphPad Prism 5.0 software (GraphPad Software, Inc., LaJolla, Calif., USA) led to the following EC300 values (i.e. the concentration that gave 3-times the basal response of the enzyme=activation by a factor of three):
The selectivity of the agonistic effect of the compound of formula (I-1) on different sirtuin isoforms was investigated. For this purpose, in vitro testing was performed as described in Example 1 using the respective SIRT1 Fluorimetric Drug Discovery Kit, SIRT2 Fluorimetric Drug Discovery Kit, and SIRT3 Fluorimetric Drug Discovery Kit (each from BioMol, Hamburg, Germany). […] The dose-response effect is slightly lesser on Sirt3.

Where [7] appears, read: Example 1, concentration that gave 3-times the basal response of the enzyme.

For the compound `CCOC(=O)c1c(O)cccc1/C=C/c1ccc(OCC)cc1` [(I-1)], the EC300 was >30* μM in data set [1]; 4.9 µM in data set [3]; 2.0 µM in data set [6] (setting [7]); 12.9 µM in data set [6] (Example 2, Table 6, Sirt1). For the same compound, the “AMPK phosphorylation” value in data set [2] (NHEK, 30 μM) is reported as “significantly enhanced”. Besides, the “cytotoxicity / cell viability in NHDF” value in data set [4] is reported as “no cytotoxicity or loss of cell viability”. The “cytotoxicity against NHEK” value in data set [5] was “no cytotoxicity”. For the same compound, the “Fold increase in sirtl activity versus control” value (shortened to “Fold increase”) in data set [6] is 23.9.
`NC(=O)c1ncn([C@@H]2O[C@H](CO)[C@@H](O)[C@H]2O)c1N` [AICAR, 5-Amino-1-βD-ribofuranosyl-imidazole-4-carboxamide]: in data set [2] (Experiment 1, Membrane 1), the “AMPK phosphorylation [% Control]” value was 482 % Control, the “Ratio P-AMPK/GAPDH” value came to 2.05 and the P-AMPK stood at 1060 AU/mm^2. In data set [2] (Experiment 2), the “AMPK phosphorylation [% Control]” value was 506 % Control, the “Ratio P-AMPK/GAPDH” value is recorded as 0.572 and the P-AMPK amounted to 1377449 AU/mm^2.
Take `COC(=O)c1c(/C=C/c2ccc(OC)cc2)cccc1OC` [(I-3)]: the “Fold increase” value in data set [6] is reported as 1.1.
For the compound `Oc1ccc(/C=C/c2cc(O)cc(O)c2)cc1` [trans-resveratrol], the EC300 is greater than 30 µM in data set [3]; greater than 30 µM in data set [6] (setting [7]); greater than 30 µM in data set [6] (Example 2, Table 6, Sirt1). Also, the viability in data set [5] (100 μM) came out at 2%; in data set [5] (300 μM), 43%.
For the compound `O=C(O)c1c(O)cccc1/C=C/c1ccc(O)cc1` [(I-2)], in data set [6], the “Fold increase” value is given as 4.8.
Still for that read-out and setting: with `O=C(O)c1c(O)cccc1/C=C/c1ccc(OC2OC(CO)C(O)C(O)C2O)cc1` (centres unmarked) [(I-5)] the figure was 2.7.
On to `COc1cc(/C=C/c2cccc(O)c2C(=O)O)cc(OC)c1O` [(I-4)], for which, in data set [6], the “Fold increase” value is on record as 2.0.
